Source: ChEMBL document CHEMBL1201862, “PubChem BioAssay data set” (2004)
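Compound exposure: 48 hours, 5 concentrations, 96-well plates. GI50 = concentration required for 50% inhibition of growth.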 The source made the active and inactive calls. No stated cut-off is given here; in the data, active = GI50 up to about 1.1 µM and inactive = higher.

Legend:
Test in all cases: growth of human tumour cells (NCI), 48 h
HCC 2998 = tested on: HCC 2998
HL-60 = tested on: HL-60
HT-29 = tested on: HT-29
TK-10 = tested on: TK-10
SK-MEL-28 = tested on: SK-MEL-28
786-0 = tested on: 786-0
SF-268 = tested on: SF-268
T47D = tested on: T47D
SNB-75 = tested on: SNB-75
SK-MEL-5 = tested on: SK-MEL-5
SN12C = tested on: SN12C
SR = tested on: SR
HCT-15 = tested on: HCT-15
A549 = tested on: A549
SK-OV-3 = tested on: SK-OV-3
KM12 = tested on: KM12
HOP-62 = tested on: HOP-62
PC-3 = tested on: PC-3
Malme-3M = tested on: Malme-3M
EKVX = tested on: EKVX
CAKI-1 = tested on: CAKI-1
COLO 205 = tested on: COLO 205
MOLT-4 = tested on: MOLT-4
RPMI-8226 = tested on: RPMI-8226
DU-145 = tested on: DU-145
MDA-MB-231 = tested on: MDA-MB-231
RXF 393 = tested on: RXF 393
UACC-257 = tested on: UACC-257
NCI-H23 = tested on: NCI-H23
K562 = tested on: K562
MDA-N = tested on: MDA-N
IGROV-1 = tested on: IGROV-1
OVCAR-8 = tested on: OVCAR-8
SF-295 = tested on: SF-295
UACC-62 = tested on: UACC-62
SW-620 = tested on: SW-620
MCF7 = tested on: MCF7
LOX IMVI = tested on: LOX IMVI
CCRF-CEM = tested on: CCRF-CEM
M14 = tested on: M14
MDA-MB-435 = tested on: MDA-MB-435
OVCAR-5 = tested on: OVCAR-5
HOP-92 = tested on: HOP-92
SF-539 = tested on: SF-539
SNB-19 = tested on: SNB-19
ACHN = tested on: ACHN
UO-31 = tested on: UO-31
NCI-H226 = tested on: NCI-H226
HCT-116 = tested on: HCT-116
NCI-H522 = tested on: NCI-H522
NCI/ADR-RES = tested on: NCI/ADR-RES
SK-MEL-2 = tested on: SK-MEL-2
Hs-578T = tested on: Hs-578T
U-251 = tested on: U-251
OVCAR-3 = tested on: OVCAR-3
NCI-H460 = tested on: NCI-H460

C=CCc1c(O)c2nsnc2c2nsnc12
GI50 (HCC 2998): > 10 µM (inactive)
GI50 (HL-60): > 10 µM (inactive)
GI50 (HT-29): > 10 µM (inactive)
GI50 (TK-10): > 10 µM (inactive)
GI50 (SK-MEL-28): > 10 µM (inactive)
GI50 (786-0): > 10 µM (inactive)
GI50 (SF-268): > 10 µM (inactive)
GI50 (T47D): > 10 µM (inactive)
GI50 (SNB-75): > 10 µM (inactive)
GI50 (SK-MEL-5): > 10 µM (inactive)
GI50 (SN12C): > 10 µM (inactive)
GI50 (SR): > 10 µM (inactive)
GI50 (HCT-15): > 10 µM
GI50 (A549): > 10 µM (inactive)
GI50 (SK-OV-3): > 10 µM (inactive)
GI50 (KM12): > 10 µM (inactive)
GI50 (HOP-62): > 10 µM (inactive)
GI50 (PC-3): > 10 µM (inactive)
GI50 (Malme-3M): > 10 µM (inactive)
GI50 (EKVX): > 10 µM (inactive)
GI50 (CAKI-1): > 10 µM (inactive)
GI50 (COLO 205): > 10 µM (inactive)
GI50 (MOLT-4): > 10 µM (inactive)
GI50 (RPMI-8226): > 10 µM (inactive)
GI50 (DU-145): > 10 µM (inactive)
GI50 (MDA-MB-231): > 10 µM (inactive)
GI50 (RXF 393): > 10 µM (inactive)
GI50 (UACC-257): > 10 µM (inactive)
GI50 (NCI-H23): > 10 µM (inactive)
GI50 (K562): > 10 µM (inactive)
GI50 (MDA-N): > 10 µM (inactive)
GI50 (IGROV-1): > 10 µM (inactive)
GI50 (OVCAR-8): > 10 µM (inactive)
GI50 (SF-295): > 10 µM (inactive)
GI50 (UACC-62): > 10 µM (inactive)
GI50 (SW-620): > 10 µM (inactive)
GI50 (MCF7): > 10 µM (inactive)
GI50 (LOX IMVI): > 10 µM (inactive)
GI50 (CCRF-CEM): > 10 µM (inactive)
GI50 (M14): > 10 µM (inactive)

COc1cc2c3c(c1Oc1nnnn1-c1ccccc1)-c1c(ccc4c1OCO4)C[C@H]3N(C)CC2
GI50 (MDA-MB-435): 20.2 µM (inactive)
GI50 (HCC 2998): 20.7 µM (inactive)
GI50 (HL-60): 15.1 µM (inactive)
GI50 (OVCAR-5): > 100 µM (inactive)
GI50 (HT-29): 18.5 µM (inactive)
GI50 (TK-10): 75.5 µM (inactive)
GI50 (HOP-92): 24.4 µM (inactive)
GI50 (SF-539): > 100 µM (inactive)
GI50 (SNB-19): 65.5 µM (inactive)
GI50 (SK-MEL-28): 17.8 µM (inactive)
GI50 (786-0): 17.5 µM (inactive)
GI50 (SF-268): 48.9 µM (inactive)
GI50 (T47D): 33.7 µM (inactive)
GI50 (SNB-75): 22.6 µM (inactive)
GI50 (SK-MEL-5): 29.5 µM (inactive)
GI50 (SN12C): 32.4 µM (inactive)
GI50 (SR): 46.7 µM (inactive)
GI50 (ACHN): 25.7 µM (inactive)
GI50 (HCT-15): 21.6 µM
GI50 (UO-31): 78.9 µM (inactive)
GI50 (A549): 45.6 µM (inactive)
GI50 (SK-OV-3): 72.9 µM (inactive)
GI50 (KM12): 32.1 µM (inactive)
GI50 (NCI-H226): > 100 µM (inactive)
GI50 (HOP-62): 60.5 µM (inactive)
GI50 (PC-3): 38.6 µM (inactive)
GI50 (Malme-3M): 18.2 µM (inactive)
GI50 (EKVX): 32.4 µM (inactive)
GI50 (HCT-116): 31.7 µM (inactive)
GI50 (COLO 205): 32.2 µM (inactive)
GI50 (NCI-H522): 36.1 µM (inactive)
GI50 (NCI/ADR-RES): 35.7 µM (inactive)
GI50 (MOLT-4): 35.7 µM (inactive)
GI50 (SK-MEL-2): 71.9 µM (inactive)
GI50 (Hs-578T): 28.4 µM (inactive)
GI50 (RPMI-8226): 32.5 µM (inactive)
GI50 (DU-145): 71 µM (inactive)
GI50 (MDA-MB-231): 41.8 µM (inactive)
GI50 (UACC-257): 20.5 µM (inactive)
GI50 (NCI-H23): 36.6 µM (inactive)
GI50 (K562): 29.6 µM (inactive)
GI50 (MDA-N): 21.9 µM (inactive)
GI50 (IGROV-1): 41.6 µM (inactive)
GI50 (OVCAR-8): 47.8 µM (inactive)
GI50 (SF-295): 32.2 µM (inactive)
GI50 (UACC-62): 14.3 µM (inactive)
GI50 (SW-620): 80.7 µM (inactive)
GI50 (U-251): 69 µM (inactive)
GI50 (LOX IMVI): 29 µM (inactive)
GI50 (OVCAR-3): 37.4 µM (inactive)
GI50 (NCI-H460): 36.9 µM (inactive)
GI50 (CCRF-CEM): 24.5 µM (inactive)
GI50 (M14): 18.7 µM (inactive)
